This is an account of results in article PMC7422936 (European journal of medicinal chemistry, 2020).

Test [1] has as its system carrageenan-induced paw edema. Nature of the test: Carrageenan-induced mouse paw edema model. The format is in vivo.
The target of test [2] is CXCR4 (Homo sapiens, UniProt P61073). Nature of the test: In vitro binding assay.

Where “and” joins values, the source holds several entries; their conditions need not be identical. Equal entries are not always repeated. Where two headings read alike, the source gives them in different places.

Chain of CXCR4 (P61073 whole entry): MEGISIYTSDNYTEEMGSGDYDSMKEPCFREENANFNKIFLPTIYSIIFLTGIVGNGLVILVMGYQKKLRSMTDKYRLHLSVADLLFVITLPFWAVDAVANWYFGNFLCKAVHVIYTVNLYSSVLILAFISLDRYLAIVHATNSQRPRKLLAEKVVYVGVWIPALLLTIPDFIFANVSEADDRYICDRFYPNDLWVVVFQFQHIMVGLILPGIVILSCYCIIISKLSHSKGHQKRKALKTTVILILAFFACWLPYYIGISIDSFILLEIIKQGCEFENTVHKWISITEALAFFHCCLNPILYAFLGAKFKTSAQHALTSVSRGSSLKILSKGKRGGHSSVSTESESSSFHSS

With `N=C(N)NCCC[C@H](N)C(=O)NC1CCN(C(=O)CCn2ccc3ccncc32)CC1` [Z7R], the “Reduction of edema (paw) weight” value in test [1] (10 mg/kg i.p. once daily, 74 h after carrageenan, n = 5, versus untreated mice) is 50% and ~ 50%. Further, the “Histology / immunohistochemistry of paw tissue” value in test [1] (10 mg/kg i.p., H&E and anti-CXCR4 staining) is listed as “observable decrease in the number of inflammatory cells”. In test [2], the EC50 was determined as 1 nM and the IC50 worked out at 1.25 nM.
As for `NC(C(=O)NC1CCN(C(=O)CCn2ccc3ccncc32)CC1)c1ccccc1` (centres unmarked) [ZINC72372983], the EC50 in test [2] (read-out: Binding Affinity (EC), EC = concentration at which the compound blocks > 50% of rhodamine Red X-TN14003, MDA-MB-231 cells, tested at 1, 10, 100, 1000 nM) was determined as 100 nM.
